From paper PMC3608532, “Characterization of a Single-Chain Variable Fragment Recognizing a Linear Epitope of Aβ: A Biotechnical Tool for Studies on Alzheimer’s Disease?” (PLoS ONE, 2013)

Legend:
Aβ(2-8) = assay: SPR binding kinetics to immobilized Aβ(2-8); settings: SPR Biacore X, CM5 chip, PBS, 25°C, global fit; scFv-IC16 Langmuir 1:1 model, IC16 bivalent model; ± standard error; SEM
Protocol: (§1) Binding kinetics were determined by SPR using a Biacore™ X (GE Healthcare, UK). Synthetic Aβ peptides were dissolved in 10 mM NaAc, pH 4.0. The CM5 sensor chip surface (GE Healthcare, UK) was activated using N-ethyl-N′-3 […] carbodiimide (EDC) and N-hydroxysuccinimide (NHS) chemistry followed by 2-(2-pyridinyldithio)ethaneamine hydrochloride (PDEA), in order to introduce a reactive thiol group. Aβ was coupled via the C-terminal cysteine to the chip at a flow rate of 5 µl/min, and the remaining active groups were blocked by injecting cysteine. The immobilization procedure was performed according to manufacturer’s recommendation. All kinetic analyses were performed at a flow rate of 20 µl/min in PBS. Varying concentrations of scFv-IC16 (10 to 5000 nM) and IC16 (10 to 1000 nM) were injected. […] When required, the surface was regenerated by injecting 20 µl 50 mM glycine, pH 11.0. The data evaluation was performed using Biaevaluation Software 4.1.1. ScFv-IC16 data were fitted according to the Langmuir 1∶1 binding model, whereas IC16 data were fitted according to the bivalent binding model. Standard errors of equilibrium dissociation constants (KD) were calculated using standard errors of the corresponding association and dissociation rate constants.

Aβ(3-8) = assay: SPR binding kinetics to immobilized Aβ(3-8); settings: SPR Biacore X, CM5 chip, PBS, 25°C, global fit; scFv-IC16 Langmuir 1:1 model, IC16 bivalent model; ± standard error; SEM
Protocol: as §1

Aβ(8-15) = assay: SPR binding kinetics to immobilized Aβ(8-15)
Protocol: as §1

Aβ(1-8) = assay: SPR binding kinetics to immobilized Aβ(1-8); settings: SPR Biacore X, PBS, 25°C, global fit, scFv-IC16 Langmuir 1:1 model, IC16 bivalent model, ± standard error, SEM
Protocol: as §1

Aβ(pE3-8) = assay: SPR binding kinetics to immobilized Aβ(pE3-8); settings: SPR Biacore X, CM5 chip, PBS, 25°C, global fit, IC16 bivalent model
Protocol: as §1

IC16: monoclonal IgG2a antibody recognizing Aβ(1-8), from hybridoma of mouse immunized with KLH Aβ(1-16)
k off (Aβ(2-8)): 1.54±0.006×10^−3 s^-1
k on (Aβ(2-8)): 4.85±0.01×10^4 M^-1 s^-1
k off (Aβ(3-8)): 3.43±0.007×10^−3 s^-1
k on (Aβ(3-8)): 4.17±0.006×10^4 M^-1 s^-1
interaction with Aβ(8-15) (Aβ(8-15)): No interaction
k on (Aβ(1-8); Aβ peptide coupled via C-terminal cysteine to CM5 chip, 20 µl/min): 3.5±0.02×10^4 M^-1 s^-1
k off (Aβ(1-8); CM5 chip): 1.8±0.02×10^−3 s^-1
Kd (Aβ(pE3-8); n.d. = no detectable binding (footnote)): 1.5 µM
k off (Aβ(pE3-8); ± standard error, SEM): 63±0.05×10^−3 s^-1
k on (Aβ(pE3-8); ± standard error, SEM): 4.21±0.008×10^4 M^-1 s^-1
